# Measurements as given in ChEMBL document CHEMBL3112580, “A new face for old antibiotics: tetracyclines in treatment of amyloidoses” (2013).
# Assays:
# Mus musculus [1] = test: Antiamyloidogenic activity in CMV-lambda6 mouse harboring human lambda LC protein at 0.5 mg/ml administered in drinking water for 3 to 6 months by Congo red staining-based microscopy; type: functional
# Homo sapiens = organism: Homo sapiens; test: Antiprion activity at scrapie prion protein in human brain at 1 mM after 1 hr by Western blotting analysis; type: tissue-based
# Mus musculus [2] = organism: Mus musculus; test: Antiamyloidogenic activity in R6/2 mouse Huntington's disease model assessed as increase in survival rate relative to control; type: functional
# Mus musculus [3] = organism: Mus musculus; test: Antiamyloidogenic activity in mouse transfected with human amylin/amyloid polypeptide assessed as increase in survival time relative to control; type: functional
smiles,measurement,setting,value
C[C@H]1c2cccc(O)c2C(=O)C2=C(O)[C@]3(O)C(=O)C(C(N)=O)=C(O)[C@@H](N(C)C)[C@@H]3[C@@H](O)[C@@H]21.O [DOXYCYCLINE],Activity,Mus musculus [1],23%
same,Activity,Homo sapiens,80%
CN(C)c1ccc(O)c2c1C[C@H]1C[C@H]3[C@H](N(C)C)C(O)=C(C(N)=O)C(=O)[C@@]3(O)C(O)=C1C2=O [MINOCYCLINE],Survival,Mus musculus [2],14%
CN(C)[C@@H]1C(O)=C(C(N)=O)C(=O)[C@@]2(O)C(O)=C3C(=O)c4c(O)cccc4[C@@](C)(O)[C@H]3C[C@@H]12 [TETRACYCLINE],Survival,Mus musculus [3],254%
